This note sets out measurements from patent US7875647B2, “Heteroaryl-pyrazole derivatives as cannabinoid CB1 receptor antagonists” (Green Cross Corporation, priority 2006, dated 2011).

SMILES strings stand for the structures.

The target of the first experiment is T1, Cannabinoid-1 receptor (CB1R) (Rattus norvegicus, UniProt P20272).
T1 construct: The tissue obtained from the brain of SD rats was homogenized; from tissue; host or cells: brain of SD rats (membrane pellet of the homogenate)
T1 sequence (P20272 whole entry): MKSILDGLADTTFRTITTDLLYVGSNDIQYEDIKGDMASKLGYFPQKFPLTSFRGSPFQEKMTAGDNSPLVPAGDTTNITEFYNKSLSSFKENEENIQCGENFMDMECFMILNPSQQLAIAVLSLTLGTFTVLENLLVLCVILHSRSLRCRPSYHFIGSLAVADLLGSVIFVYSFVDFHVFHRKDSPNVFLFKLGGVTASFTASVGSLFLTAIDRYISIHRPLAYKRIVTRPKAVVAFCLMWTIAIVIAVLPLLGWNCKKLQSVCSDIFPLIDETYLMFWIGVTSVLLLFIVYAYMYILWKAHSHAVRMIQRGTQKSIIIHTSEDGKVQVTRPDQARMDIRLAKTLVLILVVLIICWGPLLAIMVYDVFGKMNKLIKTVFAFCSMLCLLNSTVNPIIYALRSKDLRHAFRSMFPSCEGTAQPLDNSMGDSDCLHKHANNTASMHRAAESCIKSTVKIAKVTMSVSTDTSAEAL
Description: Cannabinoid-1 receptor (CB1R) binding affinity assay ([3H]CP-55940, rat CB-1 receptor binding protocol). Conditions: IC50(nM), brain tissue of SD rats, [3H]CP-55940, 30° C. 60 min.
Usually IC50 stands for the midpoint of a concentration-inhibition curve. Molecule `C=C(C)c1c(-c2nnc(C(C)(C)C)o2)nn(-c2ccc(Cl)cc2Cl)c1-c1ccc(Br)cc1` [Example 220, 2-(5-(4-bromophenyl)-1-(2,4-dichlorophenyl)-4-(prop-1-en-2-yl)-1H-pyrazol-3-yl)-5-tert-butyl-1,3,4-oxadiazole] came in with an IC50 of 8.26 nM.

Consider `C=CCC1(c2nnc(-c3nn(-c4ccc(Cl)cc4Cl)c(-c4ccc(Br)cc4)c3CC)o2)CC1` [Example 259, 2-(1-allylcyclopropyl)-5-(5-(4-bromophenyl)-1-(2,4-dichlorophenyl)-4-ethyl-1H-pyrazol-3-yl)-1,3,4-oxadiazole], for which the IC50 is 9.57 nM.

Staying with this experiment, now noted: brain tissue of SD rats, [3H]CP-55940, 30° C. 60 min; read-out: IC50.
For `CCC(C)c1nnc(-c2nn(-c3ccc(Cl)cc3Cl)c(-c3ccc(Cl)cc3)c2Br)s1` (stereo not shown) [Example 542, 2-(4-bromo-5-(4-chlorophenyl)-1-(2,4-dichlorophenyl)-1H-pyrazol-3-yl)-5-sec-butyl-1,3,4-thiadiazole], the IC50 was found to be 51.9 nM.

`CC(C)(C)c1nnc(-c2nn(-c3ccc(Cl)cc3Cl)c(-c3ccc(Cl)cc3)c2CN2CCCCC2)o1` [Example 291, 2-tert-butyl-5-(5-(4-chlorophenyl)-1-(2,4-dichlorophenyl)-4-(piperidin-1-ylmethyl)-1H-pyrazol-3-yl)-1,3,4-oxadiazole]: the IC50 was found to be 45.7 nM.

For `C=Cc1c(-c2nnc(C(C)(C)C)s2)nn(-c2ccc(Cl)cc2Cl)c1-c1ccc(Br)cc1` [Example 531, 2-(5-(4-bromophenyl)-1-(2,4-dichlorophenyl)-4-vinyl-1H-pyrazol-3-yl)-5-tert-butyl-1,3,4-thiadiazole], the IC50 is 20.6 nM.

Consider `Cc1c(-c2nnc(C3(c4ccc(Cl)cc4)CC3)o2)nn(-c2ccc(Cl)cc2Cl)c1-c1ccc(Cl)cc1` [Example 67, 2-(5-(4-chlorophenyl)-1-(2,4-dichlorophenyl)-4-methyl-1H-pyrazol-3-yl)-5-(1-(4-chlorophenyl)cyclopropyl)-1,3,4-oxadiazole], for which the half-maximal inhibitory concentration (IC50) was 8.61 nM.

For the molecule `Cc1c(-c2nnc(C(C)C3CCCC3)s2)nn(-c2ccc(Cl)cc2Cl)c1-c1ccc(Cl)cc1` (stereo not shown) [Example 391, 2-(5-(4-chlorophenyl)-1-(2,4-dichlorophenyl)-4-methyl-1H-pyrazol-3-yl)-5-(1-cyclopentylethyl)-1,3,4-thiadiazole], the IC50 was 14.3 nM.

With `CC(=O)c1c(-c2nnc(C(C)(C)C)o2)nn(-c2ccc(Cl)cc2Cl)c1-c1ccc(Cl)cc1` [Example 213, 1-(3-(5-tert-butyl-1,3,4-oxadiazol-2-yl)-5-(4-chlorophenyl)-1-(2,4-dichlorophenyl)-1H-pyrazol-4-yl)ethanone], the IC50 worked out at 49.4 nM.

In the case of `CCc1c(-c2nnc(C3(C)CC3)o2)nn(-c2ccc(Cl)cc2Cl)c1-c1ccc(Br)cc1` [Example 276, 2-(5-(4-bromophenyl)-1-(2,4-dichlorophenyl)-4-ethyl-1H-pyrazol-3-yl)-5-(1-methylcyclopropyl)-1,3,4-oxadiazole], the half-maximal inhibitory concentration (IC50) was found to be 13 nM.

As to `Cc1c(-c2nnn(C(C)C)n2)nn(-c2ccc(Cl)cc2Cl)c1-c1ccc(Cl)cc1` [Example 576, 5-(5-(4-Chlorophenyl)-1-(2,4-dichlorophenyl)-4-methyl-1H-pyrazol-3-yl)-2-isopropyl-2H-tetrazole], the IC50 was 101 nM.

In the case of `Cc1c(-c2nnn(Cc3ccco3)n2)nn(-c2ccc(Cl)cc2Cl)c1-c1ccc(Cl)cc1` [Example 594, 5-(5-(4-Chlorophenyl)-1-(2,4-dichlorophenyl)-4-methyl-1H-pyrazol-3-yl)-2-(furan-2-ylmethyl)-2H-tetrazole], the IC50 was found to be 93.8 nM.

`CCCc1c(-c2nnc(C3(c4ccc(Cl)cc4)CCC3)o2)nn(-c2ccc(Cl)cc2Cl)c1-c1ccc(Cl)cc1` [Example 187, 2-(5-(4-chlorophenyl)-1-(2,4-dichlorophenyl)-4-propyl-1H-pyrazol-3-yl)-5-(1-(4-chlorophenyl)cyclobutyl)-1,3,4-oxadiazole]: the IC50 was 11.1 nM.

For the molecule `CC(C)(C)c1nnc(-c2nn(-c3ccc(Cl)cc3Cl)c(-c3ccc(Cl)cc3)c2CN2CCOC2=O)o1` [Example 307, 3-((3-(5-tert-butyl-1,3,4-oxadiazol-2-yl)-5-(4-chlorophenyl)-1-(2,4-dichlorophenyl)-1H-pyrazol-4-yl)methyl)oxazolidin-2-one], the IC50 came out at 125 nM.

As to `COC(=O)NC(C)c1c(-c2nnc(C(C)(C)C)o2)nn(-c2ccc(Cl)cc2Cl)c1-c1ccc(Br)cc1` (stereo not shown) [Example 230, Methyl 1-(5-(4-bromophenyl)-3-(5-tert-butyl-1,3,4-oxadiazol-2-yl)-1-(2,4-dichlorophenyl)-1H-pyrazol-4-yl)ethylcarbamate], the IC50 came to 9.01 nM.

With `Cc1c(-c2nnc(C3(c4ccc(Cl)cc4)CCC3)s2)nn(-c2ccc(Cl)cc2Cl)c1-c1ccc(Cl)cc1` [Example 431, 2-(5-(4-chlorophenyl)-1-(2,4-dichlorophenyl)-4-methyl-1H-pyrazol-3-yl)-5-(1-(4-chlorophenyl)cyclobutyl)-1,3,4-thiadiazole], the IC50 amounted to 7.5 nM.

With `CCc1c(-c2nnc(C3(c4ccccc4)CC3)s2)nn(-c2ccc(Cl)cc2Cl)c1-c1ccc(Cl)cc1` [Example 479, 2-(5-(4-chlorophenyl)-1-(2,4-dichlorophenyl)-4-ethyl-1H-pyrazol-3-yl)-5-(1-phenylcyclopropyl)-1,3,4-thiadiazole], the IC50 turned out to be 6.56 nM.

As to `Cc1c(-c2nnc(CC3CCCC3)s2)nn(-c2ccc(Cl)cc2Cl)c1-c1ccc(Cl)cc1` [Example 357, 2-(5-(4-Chlorophenyl)-1-(2,4-dichlorophenyl)-4-methyl-1H-pyrazol-3-yl)-5-(cyclopentylmethyl)-1,3,4-thiadiazole], the IC50 is 30.9 nM.

Regarding `CC(=O)OCc1c(-c2nnc(C(C)(C)C)s2)nn(-c2ccc(Cl)cc2Cl)c1-c1ccc(Br)cc1` [Example 520, (5-(4-bromophenyl)-3-(5-tert-butyl-1,3,4-thiadiazol-2-yl)-1-(2,4-dichlorophenyl)-1H-pyrazol-4-yl)methyl acetate], the IC50 is 9.01 nM.

Turning to `CCc1c(-c2nnc(C3(c4ccccc4F)CC3)o2)nn(-c2ccc(Cl)cc2Cl)c1-c1ccc(Cl)cc1` [Example 282, 2-(5-(4-chlorophenyl)-1-(2,4-dichlorophenyl)-4-ethyl-1H-pyrazol-3-yl)-5-(1-(2-fluorophenyl)cyclopropyl)-1,3,4-oxadiazole], the IC50 amounted to 4.08 nM.

As to `Cc1c(-c2ncc(C(C)(C)C)s2)nn(-c2ccc(Cl)cc2Cl)c1-c1ccc(Cl)cc1` [Example 649, 5-tert-butyl-2-(5-(4-chlorophenyl)-1-(2,4-dichlorophenyl)-4-methyl-1H-pyrazol-3-yl)thiazole], the IC50 came to 12.7 nM.

Regarding `Cc1c(-c2nnc(C3(c4ccc(Cl)cc4)CC3)s2)nn(-c2ccc(Cl)cc2Cl)c1-c1ccc(Cl)cc1` [Example 430, 2-(5-(4-chlorophenyl)-1-(2,4-dichlorophenyl)-4-methyl-1H-pyrazol-3-yl)-5-(1-(4-chlorophenyl)cyclopropyl)-1,3,4-thiadiazole], the IC50 came to 13.9 nM.

`Cc1c(-c2nnc(C3(c4ccc(F)cc4)CC3)s2)nn(-c2ccc(Cl)cc2Cl)c1-c1ccc(Cl)cc1` [Example 496, 2-(5-(4-chlorophenyl)-1-(2,4-dichlorophenyl)-4-methyl-1H-pyrazol-3-yl)-5-(1-(4-fluorophenyl)cyclopropyl)-1,3,4-thiadiazole]: the IC50 was 48.9 nM.

`CCC(C)c1nnc(-c2nn(-c3ccc(Cl)cc3Cl)c(-c3cccc(Cl)c3)c2C)s1` (stereo not shown) [Example 435, 2-sec-butyl-5-(5-(3-chlorophenyl)-1-(2,4-dichlorophenyl)-4-methyl-1H-pyrazol-3-yl)-1,3,4-thiadiazole]: the IC50 came to 277 nM.

Turning to `CC(C)(C)c1nnc(-c2nn(-c3ccc(Cl)cc3Cl)c(-c3ccc(Cl)cc3)c2Cn2cnnn2)o1` [Example 300, 2-(4-((1H-tetrazol-1-yl)methyl)-5-(4-chlorophenyl)-1-(2,4-dichlorophenyl)-1H-pyrazol-3-yl)-5-tert-butyl-1,3,4-oxadiazole], the IC50 turned out to be 3.37 nM.

As for `Cc1c(-c2nnn(CCc3ccccc3)n2)nn(-c2ccc(Cl)cc2Cl)c1-c1ccc(Cl)cc1` [Example 592, 5-(5-(4-Chlorophenyl)-1-(2,4-dichlorophenyl)-4-methyl-1H-pyrazol-3-yl)-2-phenethyl-2H-tetrazole], the IC50 is 122 nM.

For `Cc1c(-c2ncc(CC(C)C)o2)nn(-c2ccc(Cl)cc2Cl)c1-c1ccc(Cl)cc1` [Example 641, 2-(5-(4-chlorophenyl)-1-(2,4-dichlorophenyl)-4-methyl-1H-pyrazol-3-yl)-5-isobutyloxazole], the IC50 was 40.6 nM.

For `CCc1c(-c2nnc(C3(c4ccc(Cl)cc4Cl)CC3)o2)nn(-c2ccc(Cl)cc2Cl)c1-c1ccc(Br)cc1` [Example 174, 2-(5-(4-bromophenyl)-1-(2,4-dichlorophenyl)-4-ethyl-1H-pyrazol-3-yl)-5-(1-(2,4-dichlorophenyl)cyclopropyl)-1,3,4-oxadiazole], the IC50 is 6.97 nM.

With `CCCc1c(-c2nnc(C3(C(F)(F)F)CC3)s2)nn(-c2ccc(Cl)cc2Cl)c1-c1ccc(Cl)cc1` [Example 499, 2-(5-(4-chlorophenyl)-1-(2,4-dichlorophenyl)-4-propyl-1H-pyrazol-3-yl)-5-(1-(trifluoromethyl)cyclopropyl)-1,3,4-thiadiazole], the IC50 was 21 nM.

With `Cc1c(-c2nnn(Cc3ccccn3)n2)nn(-c2ccc(Cl)cc2Cl)c1-c1ccc(Cl)cc1` [Example 584, 2-((5-(5-(4-Chlorophenyl)-1-(2,4-dichlorophenyl)-4-methyl-1H-pyrazol-3-yl)-2H-tetrazol-2-yl)methyl)pyridine], the IC50 came out at 93 nM.

With `Cc1c(-c2nnc(C3(Cc4ccccc4)CC3)o2)nn(-c2ccc(Cl)cc2Cl)c1-c1ccc(Cl)cc1` [Example 270, 2-(1-benzylcyclopropyl)-5-(5-(4-chlorophenyl)-1-(2,4-dichlorophenyl)-4-methyl-1H-pyrazol-3-yl)-1,3,4-oxadiazole], the 50% inhibitory concentration (IC50) came out at 15 nM.

As to `CCc1c(-c2nnc(C3CCCCCC3)s2)nn(-c2ccc(Cl)cc2Cl)c1-c1ccc(Cl)cc1` [Example 397, 2-(5-(4-chlorophenyl)-1-(2,4-dichlorophenyl)-4-ethyl-1H-pyrazol-3-yl)-5-cycloheptyl-1,3,4-thiadiazole], the IC50 worked out at 9.42 nM.
